Results: article PMC9416200, “Antifungal Potential of Synthetic Peptides against Cryptococcus neoformans: Mechanism of Action Studies Reveal Synthetic Peptides Induce Membrane–Pore Formation, DNA Degradation, and Apoptosis” (Pharmaceutics, 2022)
≈ marks a conversion by molar mass, not a printed value. Blank lines part the entries; values can stand above or below the compound they belong to.

Columns and labels:
[1] = test system: laccase from C. neoformans; details: cited from earlier work
[2] = test system: C. neoformans infection; set-up: method as in PMID 34203688; details: treated mice; cited from earlier work
[3] = test system: Cryptococcus neoformans (ATCC 32045); experiment: Minimum inhibitory concentration assay, broth microdilution; format: cell-based; details: YPD, 10^6 cells mL^−1, peptides 50 to 0.004 µg mL^−1, 24 h, absorbance 600 nm, ND = MIC50 not reached, three independent experiments

Compound: O=c1oc2c(O)c(O)cc3c(=O)oc4c(O)c(O)cc1c4c23 [EA, Ellagic acid]
inhibition of laccase from C. neoformans [1]: interacts and inhibits the laccase
survival rate toward C. neoformans infection [2]: 70%

Compound: C[C@@H]1[C@H](O)[C@@H](C)/C=C/C=C/CC/C=C/C=C/C=C/C=C/C(O[C@H]2O[C@H](C)[C@@H](O)[C@H](N)[C@@H]2O)CC2O[C@](O)(CC(O)C(O)CCC(O)CC(O)CC(O)CC(=O)O[C@H]1C)CC(O)C2C(=O)O (some centres unmarked) [Nystatin]
MIC50 against C. neoformans ([3]; concentration required to inhibit 50% of yeast growth): 250 µg/mL (≈ 270 µM)

Compound: OC(Cn1cncn1)(Cn1cncn1)c1ccc(F)cc1F [fluconazole]
survival rate toward C. neoformans infection [2]: 20%

MIC50 ([3]; Cryptococcus neoformans, ATCC32045, concentration required to inhibit 50% of yeast growth, read-out: MIC50 against C. neoformans): 500 µg/mL (≈ 709 µM)
Compound: CCC(C)n1ncn(-c2ccc(N3CCN(c4ccc(OCC5COC(Cn6cncn6)(c6ccc(Cl)cc6Cl)O5)cc4)CC3)cc2)c1=O (centres unmarked) [Itraconazole]
